The results in this text go back to patent US12150929B2, “Compositions and methods for the treatment of depression” (Janssen Pharmaceuticals, Inc., priority 2021, dated 2024).

Each structure is given as a SMILES string. Where two headings read alike, the source gives them in different places.

One series in a line: Weight change, Example 1. Format: in vivo, human. Here is the method: Treatment with aticaprant as described herein has several advantages over the treatments in the art. […] As used herein, the term “weight gain” refers to an increase in the weight of patient, relative to the weight of the patient before taking aticaprant or the weight of the patient that is assessed at the time of the initial administration of the aticaprant. In certain embodiments, the patient may actually see a decrease in overall weight, relative to the weight of the patient before taking aticaprant.
At the lead-in baseline timepoint, the mean weight for subjects in the placebo group was 76.17 kg compared to 78.66 in the aticaprant group. After 6 weeks in the double-blind treatment phase, the mean weight in the placebo group was 75.75 kg compared to 78.57 kg in the aticaprant group. […] This is unexpected because other adjunctive treatments for MDD result in a mean weight increase. See, Thase M, et al. J Clin Psych. 2015: 76(9), 1224-1231; Thase, J Clin Psych. 2015, 76(9): 1232-1240; El Khalili, Int J Neuropsychopharmacol. 2010, 13, 917-932; Marcus, J. Clin. Psychopharmacol. […] Nashville, Tenn, ACNP, 2008; Earley, American College of Neuropsychopharmacology, 2007, Annual Meeting Abstracts (Boca Raton, Fla, Dec. 9-13, 2007). Nashville, TN, ACNP, 2007). See, Table 29.

The nature of series [1]: Maximum plasma concentration (Cmax) of aticaprant, Example 1. Format: in vivo. The note with it: human, oral, 10 mg, eITT, read-out: Cmax, Arithmetic Mean (SD). As for the experimental part:
Aticaprant was supplied as 5-mg capsules. Placebo was supplied as matching capsules. All subjects took 2 capsules QD. The capsules were taken daily from Day 2 to Day 78 in fasting condition with some water (fasting for at least 4 hours before dosing). Medication was taken before breakfast. If the subject has forgotten to take the medication before breakfast, this was done before the next following meal, at the latest at dinner of the same day. If the subject remembered later than dinner, the dose of that day was omitted, and the subject took the dose before breakfast on the next day.
Cmax is defined as maximum plasma concentration of aticaprant. […] Here ‘N’ (number of subjects analyzed) includes the number of subjects evaluable for this endpoint. Here ‘n’ (number analyzed) included all subjects evaluable for specified time point categories.

In general, Cmax refers to the peak of the concentration-time curve.

Consider `Cc1cc(C)cc(C2CCCN2Cc2ccc(Oc3ccc(C(N)=O)cc3F)cc2)c1` (centres unmarked) [aticaprant, 3-fluoro-4-4-2-(3,5-dimethylphenyl)pyrrolidin-1-yl-methylphenoxybenzamide], for which the “Mean weight, Lead-in Baseline, mean (SE)” value in “Weight change, Example 1” (Lead-in Baseline, n = 85) is 78.66 (1.65) kg. Moreover, the “Mean weight, Screening, mean (SE)” value in “Weight change, Example 1” (Screening, n = 85) is given as 78.42 (1.65) kg. Moreover, the “Mean weight, Withdrawal Baseline, mean (SE)” value in the series “Weight change, Example 1” (Withdrawal Baseline (after 6 weeks double-blind treatment), n = 85) is reported as 78.57 (1.71) kg. The “Mean weight, Relative % Change” value in the series “Weight change, Example 1” (Withdrawal vs Lead-in, n = 85) is on record as −0.11%. For the same molecule, the mean weight amounted to 78.57 kg in “Weight change, Example 1” (after 6 weeks in the double-blind treatment phase) and 78.66 kg in “Weight change, Example 1” (lead-in baseline timepoint). Moreover, the “weight over the 6-week double blind treatment period” value in the series “Weight change, Example 1” (both groups) is listed as “remained relatively stable”. Moreover, the “Mean weight, Absolute Change (Withdrawal − Lead-in)” value in the series “Weight change, Example 1” (n = 85) is -0.09 kg. Further, the Cmax amounted to 32.7 ± 10.9 ng/mL in series [1] (Week 1 (n = 56)), 33.5 ± 11.1 ng/mL in series [1] (Week 3 (n = 56)) and 34.3 ± 11.1 ng/mL in series [1] (Week 6 (n = 56)).
